Results: ChEMBL document CHEMBL1150213, “Protein-tyrosine kinase inhibition: mechanism-based discovery of antitumor agents” (J Nat Prod, 1992)
Values after ≈ are worked out from the molar mass of the structure shown. Where a SMILES comes first, the peptide text is derived from it. The star is where a group is joined. CH2Cl = ClC*

What was measured:
[1] = target: T1, Tyrosine-protein kinase transforming protein Abl (Abelson murine leukemia virus, UniProt P00521)
T1 sequence (P00521 whole entry): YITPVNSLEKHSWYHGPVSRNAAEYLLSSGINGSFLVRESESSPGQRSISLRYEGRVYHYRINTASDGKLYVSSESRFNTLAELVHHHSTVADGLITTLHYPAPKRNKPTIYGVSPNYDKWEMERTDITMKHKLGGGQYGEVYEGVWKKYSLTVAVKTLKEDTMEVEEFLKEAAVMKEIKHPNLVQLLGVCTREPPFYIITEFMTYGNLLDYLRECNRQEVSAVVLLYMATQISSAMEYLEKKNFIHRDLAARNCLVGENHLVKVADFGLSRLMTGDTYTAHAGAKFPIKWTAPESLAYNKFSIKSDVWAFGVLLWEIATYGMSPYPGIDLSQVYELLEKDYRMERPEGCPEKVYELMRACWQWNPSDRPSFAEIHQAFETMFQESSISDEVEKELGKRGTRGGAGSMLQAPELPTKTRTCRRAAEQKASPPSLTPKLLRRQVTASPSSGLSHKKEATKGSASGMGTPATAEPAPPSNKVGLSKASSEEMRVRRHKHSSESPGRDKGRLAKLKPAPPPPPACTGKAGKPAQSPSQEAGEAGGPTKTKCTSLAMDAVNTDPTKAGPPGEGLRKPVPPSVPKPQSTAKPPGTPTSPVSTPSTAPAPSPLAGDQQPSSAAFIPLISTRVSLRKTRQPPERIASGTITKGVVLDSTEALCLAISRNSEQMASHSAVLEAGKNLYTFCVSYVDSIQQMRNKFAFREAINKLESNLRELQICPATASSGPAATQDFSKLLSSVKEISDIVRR
Description: Inhibition of Abelson murine leukemia virus p60 v-abl

[2] = target: T2, Epidermal growth factor receptor (Homo sapiens, UniProt P00533)
T2 sequence (P00533 whole entry): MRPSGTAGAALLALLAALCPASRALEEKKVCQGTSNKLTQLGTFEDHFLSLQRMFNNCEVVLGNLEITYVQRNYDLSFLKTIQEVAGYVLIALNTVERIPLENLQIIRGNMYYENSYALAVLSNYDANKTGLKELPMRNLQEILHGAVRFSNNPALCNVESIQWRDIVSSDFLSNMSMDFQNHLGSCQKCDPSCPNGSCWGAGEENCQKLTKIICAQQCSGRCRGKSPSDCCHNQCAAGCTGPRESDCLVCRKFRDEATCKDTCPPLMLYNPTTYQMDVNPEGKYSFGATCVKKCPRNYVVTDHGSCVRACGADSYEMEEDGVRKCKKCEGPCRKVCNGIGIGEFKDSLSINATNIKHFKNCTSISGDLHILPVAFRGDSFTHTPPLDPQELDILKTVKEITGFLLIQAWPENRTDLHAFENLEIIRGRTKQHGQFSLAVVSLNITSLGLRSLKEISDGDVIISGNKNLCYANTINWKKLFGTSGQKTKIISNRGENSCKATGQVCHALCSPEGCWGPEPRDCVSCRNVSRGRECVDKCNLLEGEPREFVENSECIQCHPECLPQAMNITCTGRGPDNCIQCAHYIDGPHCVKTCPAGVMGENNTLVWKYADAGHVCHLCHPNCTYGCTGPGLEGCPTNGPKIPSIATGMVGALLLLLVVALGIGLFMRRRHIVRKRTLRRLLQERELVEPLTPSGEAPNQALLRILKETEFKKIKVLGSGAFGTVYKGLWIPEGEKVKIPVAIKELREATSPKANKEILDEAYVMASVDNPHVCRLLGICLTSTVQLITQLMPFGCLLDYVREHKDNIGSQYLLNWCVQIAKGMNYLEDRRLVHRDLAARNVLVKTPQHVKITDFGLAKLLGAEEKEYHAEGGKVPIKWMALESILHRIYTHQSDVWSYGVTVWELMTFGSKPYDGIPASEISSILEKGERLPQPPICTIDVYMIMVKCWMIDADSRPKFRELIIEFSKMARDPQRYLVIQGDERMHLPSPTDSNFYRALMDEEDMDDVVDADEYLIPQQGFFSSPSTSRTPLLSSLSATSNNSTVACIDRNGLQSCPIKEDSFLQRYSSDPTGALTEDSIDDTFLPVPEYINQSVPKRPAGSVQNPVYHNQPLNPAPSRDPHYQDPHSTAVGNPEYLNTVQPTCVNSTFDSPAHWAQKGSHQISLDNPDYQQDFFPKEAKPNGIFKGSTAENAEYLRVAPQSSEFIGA

[3] = target: T2, Epidermal growth factor receptor; experiment: Inhibition of EGFR in human A431 cells at 400 nmol/mg protein in absence of EGF; type: cell-based; conditions: A-431
[4] = target: T2, Epidermal growth factor receptor; experiment: Inhibition of EGFR in human A431 cells at 400 nmol/mg protein in presence of EGF; type: cell-based; conditions: A-431
[5] = target: Proto-oncogene tyrosine-protein kinase Src (Homo sapiens, UniProt P12931)
Chain of Proto-oncogene tyrosine-protein kinase Src (P12931 2-536 limits assumed): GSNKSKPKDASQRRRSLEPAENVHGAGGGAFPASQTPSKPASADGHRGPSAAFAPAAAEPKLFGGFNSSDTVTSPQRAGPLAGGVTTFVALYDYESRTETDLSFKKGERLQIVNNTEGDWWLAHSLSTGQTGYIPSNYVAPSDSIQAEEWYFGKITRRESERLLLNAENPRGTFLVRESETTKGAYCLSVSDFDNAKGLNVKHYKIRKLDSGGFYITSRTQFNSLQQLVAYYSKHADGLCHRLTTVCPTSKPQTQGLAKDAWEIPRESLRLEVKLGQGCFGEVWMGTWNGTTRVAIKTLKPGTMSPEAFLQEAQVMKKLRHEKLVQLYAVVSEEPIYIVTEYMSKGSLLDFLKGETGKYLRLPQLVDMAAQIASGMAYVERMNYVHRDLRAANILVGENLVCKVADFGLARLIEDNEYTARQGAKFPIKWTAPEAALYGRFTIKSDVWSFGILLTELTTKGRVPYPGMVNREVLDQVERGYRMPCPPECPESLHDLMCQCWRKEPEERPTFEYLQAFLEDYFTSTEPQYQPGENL
Description: Inhibition of p60c-src expressed in chick embryo fibroblast

[6] = Inhibition of p40 tyrosine kinase

Compound: NCCNC(=O)c1ccc(S(=O)(=O)Oc2ccc(/C=C/[N+](=O)[O-])cc2)cc1
- IC50 [1]: > 5 µM
- IC50 [2]: 5 µM

Compound: COC(=O)c1ccc(S(=O)(=O)Oc2ccc(/C=C/[N+](=O)[O-])cc2)cc1
- IC50 [1]: > 100 µM
- IC50 [2]: 2 µM

Compound: O=C(CCl)[C@H](Cc1c[nH]c2ccccc12)NOCc1ccccc1
- inhibition [3]: 6%
- inhibition [4]: 10%

Compound: CC(C)NC(=O)c1ccc(S(=O)(=O)Oc2ccc(/C=C/[N+](=O)[O-])cc2)cc1
- IC50 [1]: > 100 µM
- IC50 [2]: 1 µM

Compound: O=C(CCl)[C@H](Cc1ccccc1)NOCc1ccccc1
- inhibition [3]: 21%
- inhibition [4]: 15%

Compound: Nc1ncnc2c1ncn2[C@@H]1O[C@H](COP(=O)(O)O)[C@@H](O)[C@H]1O [ADENOSINE PHOSPHATE]
- IC50 [5]: 0.1 µM

Compound: O=C1c2ccc(O)cc2O[C@H](c2ccc(O)c(O)c2)[C@H]1O [FUSTIN]
- IC50 [6]: > 5 ×10² ug/ml

Compound: Nc1ncnc2c1ncn2[C@@H]1O[C@H](COP(=O)(O)OP(=O)(O)OP(=O)(O)OP(=O)(O)OC[C@H]2O[C@@H](n3cnc4c(N)ncnc43)[C@H](O)[C@@H]2O)[C@@H](O)[C@H]1O [DIADENOSINE TETRAPHOSPHATE]
- IC50 [5]: 46 µM

Compound: CC(=O)N[C@@H](C)C(=O)N[C@@H](C)C(=O)N[C@@H](Cc1ccccc1)C(=O)N[C@H](C(=O)CCl)[C@@H](C)O (Ac-AAFT-CH2Cl)
- inhibition [3]: 4%
- inhibition [4]: 10%

Compound: COc1cc(/C=C/C(=O)O)ccc1O [FERULATE]
- IC50 [6]: > 300 µg/mL

Compound: CC(C)C[C@H](N)C(=O)CCl
- inhibition [3]: 16%
- inhibition [4]: 0%

Compound: CC(=O)N[C@@H](Cc1ccccc1)C(=O)NCC(=O)N[C@@H](C)C(=O)N[C@@H](CC(C)C)C(=O)CCl (Ac-FGAL-CH2Cl)
- inhibition [3]: 59%
- inhibition [4]: 29%

Compound: O=C(O)c1ccc(S(=O)(=O)Oc2ccc(/C=C/[N+](=O)[O-])cc2)cc1O
- IC50 [1]: 30 µM
- IC50 [2]: 0.05 µM

Compound: O=C1C[C@@H](c2ccccc2)Oc2cc(O)cc(O)c21 [PINOCEMBRIN]
- IC50 [6]: > 5 ×10² ug/ml

Compound: C[C@H](NC(=O)OCc1ccccc1)C(=O)CCl
- inhibition [3]: 71%
- inhibition [4]: 44%

Compound: Cc1ccc([C@@H]2CC(=O)c3c(O)cc(O)cc3O2)cc1
- IC50 [6]: 3 ×10¹ ug/ml

Compound: CC(C)(C)OC(=O)NCCNC(=O)c1ccc(S(=O)(=O)Oc2ccc(/C=C/[N+](=O)[O-])cc2)cc1
- IC50 [1]: 100 µM
- IC50 [2]: 1 µM

Compound: CC(C)C[C@H](NC(=O)OC(C)(C)C)C(=O)CBr
- inhibition [3]: 65%
- inhibition [4]: 69%

Compound: CC(=O)NCC(=O)NCC(=O)N[C@@H](C)C(=O)N[C@@H](Cc1ccccc1)C(=O)CCl (Ac-GGAF-CH2Cl)
- inhibition [3]: 5%
- inhibition [4]: 0%

Compound: O=C1c2c(O)cc(O)cc2O[C@H](c2ccc(O)c(O)c2)[C@H]1O [(+)-TAXIFOLIN]
- IC50 [6]: 3 ×10² ug/ml

Compound: CCCCNC(=O)c1ccc(S(=O)(=O)Oc2ccc(/C=C/[N+](=O)[O-])cc2)cc1
- IC50 [1]: > 100 µM
- IC50 [2]: 5 µM

Compound: Nc1ncnc2c1ncn2[C@@H]1O[C@H](COP(=O)(O)OP(=O)(O)OP(=O)(O)OP(=O)(O)O)[C@@H](O)[C@H]1O
- IC50 [5]: 9 µM

Compound: Nc1ncnc2c1ncn2[C@@H]1O[C@H](COC(=O)c2ccc(S(=O)(=O)NCCCc3ccccc3)cc2)[C@@H](O)[C@H]1O
- IC50 [1]: 60 µM

Compound: O=C(O)c1ccc(S(=O)(=O)Oc2ccc(/C=C/[N+](=O)[O-])cc2)c(O)c1
- IC50 [1]: 100 µM
- IC50 [2]: 0.3 µM

Compound: CC(C)C[C@H](NC(=O)OCc1ccccc1)C(=O)C=[N+]=[N-]
- inhibition [3]: 15%
- inhibition [4]: 18%

Compound: O=C1C[C@@H](c2ccc(O)cc2)Oc2cc(O)cc(O)c21 [NARINGENIN]
- IC50 [6]: 8 ×10¹ ug/ml

Compound: Nc1ncnc2c1ncn2[C@@H]1O[C@H](COC(=O)c2ccc(S(=O)(=O)F)cc2)[C@@H](O)[C@H]1O
- IC50 [1]: 200 µM

Compound: Oc1cc(O)cc(/C=C/c2ccc(O)c(O)c2)c1 [PICEATANNOL]
- IC50 [6]: 4 µg/mL (≈ 16.4 µM)

Compound: Nc1ncnc2c1ncn2[C@@H]1O[C@H](COC(=O)c2ccc(S(=O)(=O)NCc3ccccc3)cc2)[C@@H](O)[C@H]1O
- IC50 [1]: 50 µM

Compound: CC(=O)NC(Cc1ccc(OS(=O)(=O)c2ccc(C(=O)OC[C@H]3O[C@@H](n4cnc5c(N)ncnc54)[C@H](O)[C@@H]3O)cc2)cc1)C(N)=O (some centres not stated)
- IC50 [1]: 100 µM

Compound: CNC(=O)c1ccc(S(=O)(=O)Oc2ccc(/C=C/[N+](=O)[O-])cc2)cc1
- IC50 [1]: > 40 µM

Compound: Nc1nc2c(ncn2[C@@H]2O[C@H](COP(=O)(O)OP(=O)(O)OP(=O)(O)OP(=O)(O)OC[C@H]3O[C@@H](n4cnc5c(=O)[nH]c(N)nc54)[C@H](O)[C@@H]3O)[C@@H](O)[C@H]2O)c(=O)[nH]1
- IC50 [5]: > 100 µM

Compound: COc1cc(/C=C/[N+](=O)[O-])ccc1OS(=O)(=O)c1ccc(C(=O)O)cc1
- IC50 [1]: 40 µM
- IC50 [2]: 3 µM

Compound: C[C@H](NC(=O)c1ccc(S(=O)(=O)Oc2ccc(/C=C/[N+](=O)[O-])cc2)cc1)C(=O)N[C@@H](C)C(=O)NCCN
- IC50 [1]: 20 µM
- IC50 [2]: 20 µM

Compound: Nc1ncnc2c1ncn2[C@@H]1O[C@H](COC(=O)c2ccc(S(N)(=O)=O)cc2)[C@@H](O)[C@H]1O
- IC50 [1]: 100 µM

Compound: COC(=O)c1ccc(S(=O)(=O)Oc2ccc(/C=C/[N+](=O)[O-])cc2)cc1O
- IC50 [1]: > 100 µM
- IC50 [2]: 2 µM

Compound: O=C(O)/C=C/c1ccc(O)cc1 [COUMARIC ACID]
- IC50 [6]: > 300 µg/mL

Compound: O=C(O)c1ccc(S(=O)(=O)Oc2ccc(/C=C/[N+](=O)[O-])cc2)cc1
- IC50 [1]: 100 µM
